Data taken from ChEMBL document CHEMBL1201862, “PubChem BioAssay data set” (2004).
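All cell lines were grown in 96-well plates and treated with compound for 48 hours. At the GI50, growth is halved.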 Calls of active or inactive are those of the source. No stated cut-off is given here; in the data, active = GI50 up to about 1.1 µM and inactive = higher.

What was measured:
Experiment in all cases: NCI tumour cell line growth inhibition, 48 h
[1] = system: CCRF-CEM
[2] = system: IGROV-1
[3] = system: OVCAR-4
[4] = system: NCI-H522
[5] = system: A549
[6] = system: OVCAR-5
[7] = system: COLO 205
[8] = system: SW-620
[9] = system: K562
[10] = system: SNB-19
[11] = system: OVCAR-8
[12] = system: RPMI-8226
[13] = system: SF-295
[14] = system: EKVX
[15] = system: M14
[16] = system: SK-OV-3
[17] = system: SK-MEL-5
[18] = system: TK-10

SMILES | GI50 [1] | GI50 [2] | GI50 [3] | GI50 [4] | GI50 [5] | GI50 [6] | GI50 [7] | GI50 [8] | GI50 [9] | GI50 [10] | GI50 [11] | GI50 [12] | GI50 [13] | GI50 [14] | GI50 [15] | GI50 [16] | GI50 [17] | GI50 [18]
Oc1c(C(Nc2cccc3cccnc23)c2ccccc2)ccc2cccnc12 (stereo not given) | 1.57 µM (inactive) | 8.04 µM (inactive) | 17.5 µM (inactive) | 16.8 µM (inactive) | 6.04 µM (inactive) | 12.9 µM (inactive) | 6.25 µM (inactive) | 4.05 µM (inactive) | 3.32 µM (inactive) | 4.69 µM (inactive) | 3.72 µM (inactive) | 3.88 µM (inactive) | 3.87 µM (inactive) | 4.84 µM (inactive) | – | – | – | –
C[N+]1(CCNP(=S)(NCC[N+]2(C)Cc3c(ccc4c3OCO4)C3C2c2cc4c(cc2C[C@@H]3O)OCO4)NCC[N+]2(C)Cc3c(ccc4c3OCO4)C3C2c2cc4c(cc2C[C@@H]3O)OCO4)Cc2c(ccc3c2OCO3)C2C1c1cc3c(cc1C[C@H]2O)OCO3 (stereo not given in full) | 1.27 µM (inactive) | < 0.00191 µM (active) | < 0.00191 µM (active) | < 0.00191 µM (active) | < 0.00191 µM (active) | < 0.00191 µM (active) | < 0.00191 µM (active) | < 0.00191 µM (active) | < 0.00191 µM (active) | < 0.00191 µM (active) | < 0.00191 µM (active) | < 0.00191 µM (active) | < 0.00191 µM (active) | < 0.00191 µM (active) | < 0.00191 µM (active) | < 0.00191 µM (active) | < 0.00191 µM (active) | < 0.00191 µM (active)
c1ccc(OC2=NC3=S(S2)SC(Oc2ccccc2)=N3)cc1 | 9.59 µM (inactive) | 20.8 µM (inactive) | – | 16.4 µM (inactive) | 21.6 µM (inactive) | 20.5 µM (inactive) | 17.9 µM (inactive) | 15 µM (inactive) | 16.5 µM (inactive) | 20.4 µM (inactive) | 22.2 µM (inactive) | 4.83 µM (inactive) | 17 µM (inactive) | 21.5 µM (inactive) | 18.4 µM (inactive) | 28.2 µM (inactive) | 18 µM (inactive) | 17.8 µM (inactive)
COC(=O)C1=C(C(=O)OC)C23CC1C1C(C(=O)OC)=C(C(=O)OC)C12C1C=CC3C2C(=O)OC(=O)C21 (stereo not given) | 40.4 µM (inactive) | 59 µM (inactive) | 39.4 µM (inactive) | 22.4 µM (inactive) | 49 µM (inactive) | > 100 µM (inactive) | 28.3 µM (inactive) | 37.5 µM (inactive) | 24 µM (inactive) | 62.1 µM (inactive) | 48.3 µM (inactive) | 32.3 µM (inactive) | 53 µM (inactive) | > 100 µM (inactive) | 41.3 µM (inactive) | – | 41.8 µM (inactive) | > 100 µM (inactive)
CC(=O)Nc1ccc(C(=O)NN2C(=O)C(Cl)C2c2ccccc2)cc1 (stereo not given) | > 100 µM (inactive) | > 100 µM (inactive) | > 100 µM (inactive) | > 100 µM (inactive) | > 100 µM (inactive) | > 100 µM (inactive) | > 100 µM (inactive) | > 100 µM (inactive) | > 100 µM (inactive) | > 100 µM (inactive) | > 100 µM (inactive) | – | > 100 µM (inactive) | > 100 µM (inactive) | > 100 µM (inactive) | > 100 µM (inactive) | > 100 µM (inactive) | > 100 µM (inactive)
CN(C)CCNC(=O)c1cccc2c(Nc3ccc(S(N)(=O)=O)cc3)c3ccccc3nc12 | – | 2.18 µM (inactive) | 1.7 µM (inactive) | 0.252 µM (active) | 1.79 µM (inactive) | 2.32 µM (inactive) | 0.391 µM (active) | 0.367 µM (active) | 0.509 µM (active) | 1.05 µM (active) | 0.435 µM (active) | 7.08 µM (inactive) | 2.01 µM (inactive) | 3.05 µM (inactive) | 1.67 µM (inactive) | 0.376 µM (active) | 1.67 µM (inactive) | 1.97 µM (inactive)
COc1ccc(CNc2nc3ccc(C(F)(F)F)cc3nc2-c2ccccc2)cc1OC | 9.91 µM (inactive) | – | – | – | 31.3 µM (inactive) | > 100 µM (inactive) | 6.41 µM (inactive) | > 100 µM (inactive) | – | > 100 µM (inactive) | > 100 µM (inactive) | 35.9 µM (inactive) | 42.9 µM (inactive) | > 100 µM (inactive) | – | > 100 µM (inactive) | – | 71.6 µM (inactive)
CSC(C1c2ccccc2N(c2ccc(C)cc2)c2[nH]c(=O)n(C)c(=O)c21)S(=O)(=O)c1ccc(C)cc1 (stereo not given) | 71.6 µM (inactive) | > 100 µM (inactive) | 97.7 µM (inactive) | 63.8 µM (inactive) | > 100 µM (inactive) | > 100 µM (inactive) | > 100 µM (inactive) | > 100 µM (inactive) | > 100 µM (inactive) | > 100 µM (inactive) | > 100 µM (inactive) | 97.1 µM (inactive) | > 100 µM (inactive) | > 100 µM (inactive) | > 100 µM (inactive) | > 100 µM (inactive) | > 100 µM (inactive) | > 100 µM (inactive)
